From PubChem BioAssay AID330 (DTP/NCI, 2004)
Where “and” joins values, the source holds several entries; their conditions need not be identical. Equal entries are not always repeated. Toxic doses and inconclusive results are not listed. Peptide text beside a SMILES is read from it. * marks the point of attachment. Boc = CC(C)(C)OC(=O)*; NHNH2 = NN*

System: P388 leukemia ip, CD2F1 mice, survival T/C
Test: NCI In Vivo Anticancer Drug Screen. Data for tumor model P388 Leukemia (intraperitoneal) in CD2F1 (CDF1) mice
Details: endpoint: median survival time, higher = longer survival
Method in brief: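 Mice carrying the transplanted tumor received test compound or vehicle. Survival was recorded in each group, and the value is the treated-group measurement divided by that of the vehicle-treated control group.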

[1] = dose: 5.0 mg/kg/injection, schedule: Q04DX003 (ip), vehicle: water
[2] = dose: 60.0 mg/kg/injection, schedule: Q01DX005 (ip), vehicle: saline with Tween-80
[3] = dose: 120.0 mg/kg/injection, schedule: Q01DX005 (ip), vehicle: saline with Tween-80
[4] = dose: 240.0 mg/kg/injection, schedule: Q01DX005 (ip), vehicle: saline with Tween-80

SMILES: CO[C@@]12[C@H](COC(N)=O)C3=C(C(=O)C(C)=C(N)C3=O)N1C[C@@H]1N[C@@H]12
- T/C (dose: 0.25 mg/kg/injection, schedule: Q01DX009 (ip), vehicle: saline with Tween-80): 160 % of control and 166 % of control
- T/C (dose: 0.5 mg/kg/injection, schedule: Q01DX009 (ip), vehicle: saline with Tween-80): 150 % of control and 157 % of control and 210 % of control
- T/C (dose: 0.5 mg/kg/injection, schedule: Q04DX003 (ip), vehicle: saline): 112 % of control
- T/C (dose: 0.65 mg/kg/injection, schedule: Q04DX002 (ip), vehicle: saline): 160 % of control
- T/C (dose: 0.75 mg/kg/injection, schedule: Q04DX003 (ip), vehicle: saline): 150 % of control and 163 % of control
- T/C (dose: 0.75 mg/kg/injection, schedule: Q04DX003 (ip), vehicle: water): 170 % of control
- T/C (dose: 0.78 mg/kg/injection, schedule: Q04DX003 (ip), vehicle: saline): 152 % of control and 153 % of control
- T/C (dose: 0.97 mg/kg/injection, schedule: Q04DX003 (ip), vehicle: saline): 150 % of control
- T/C (dose: 1.0 mg/kg/injection, schedule: Q01DX009 (ip), vehicle: saline with Tween-80): 166 % of control and 169 % of control
- T/C (dose: 1.08 mg/kg/injection, schedule: Q04DX002 (ip), vehicle: saline): 164 % of control
- T/C (dose: 1.1 mg/kg/injection, schedule: Q04DX003 (ip), vehicle: water): 159 % of control
- T/C (dose: 1.3 mg/kg/injection, schedule: Q04DX002 (ip), vehicle: saline): 163 % of control
- T/C (dose: 1.3 mg/kg/injection, schedule: Q04DX003 (ip), vehicle: saline): 174 % of control and 180 % of control
- T/C (dose: 1.5 mg/kg/injection, schedule: Q04DX003 (ip), vehicle: saline): 155 % of control and 161 % of control and 183 % of control
- T/C (dose: 1.5 mg/kg/injection, schedule: Q04DX003 (ip), vehicle: water): 163 % of control and 200 % of control
- T/C (dose: 1.62 mg/kg/injection, schedule: Q04DX003 (ip), vehicle: saline): 163 % of control
- T/C (dose: 1.8 mg/kg/injection, schedule: Q04DX002 (ip), vehicle: saline): 175 % of control
- T/C (dose: 1.8 mg/kg/injection, schedule: Q04DX003 (ip), vehicle: water): 174 % of control
- T/C (dose: 2.0 mg/kg/injection, schedule: Q01DX009 (ip), vehicle: saline with Tween-80): 104 % of control and 120 % of control
- T/C (dose: 2.0 mg/kg/injection, schedule: Q04DX003 (ip), vehicle: saline): 163 % of control
- T/C (dose: 2.16 mg/kg/injection, schedule: Q04DX002 (ip), vehicle: saline): 162 % of control
- T/C (dose: 2.16 mg/kg/injection, schedule: Q04DX003 (ip), vehicle: saline): 155 % of control (2×) and 174 % of control
- T/C (dose: 2.7 mg/kg/injection, schedule: Q04DX003 (ip), vehicle: saline): 183 % of control and 204 % of control
- T/C (dose: 3.0 mg/kg/injection, schedule: Q01DX001 (ip), vehicle: saline): 169 % of control
- T/C (dose: 3.0 mg/kg/injection, schedule: Q04DX002 (ip), vehicle: saline): 212 % of control
- T/C (dose: 3.0 mg/kg/injection, schedule: Q04DX003 (ip), vehicle: water): 190 % of control and 197 % of control
- T/C (dose: 3.5 mg/kg/injection, schedule: Q01DX001 (ip), vehicle: carboxymethylcellulose (CMC)): 183 % of control
- T/C (dose: 3.6 mg/kg/injection, schedule: Q01DX001 (ip), vehicle: water): 175 % of control and 176 % of control
- T/C (dose: 3.6 mg/kg/injection, schedule: Q04DX002 (ip), vehicle: saline): 159 % of control
- T/C (dose: 3.6 mg/kg/injection, schedule: Q04DX003 (ip), vehicle: saline): 184 % of control and 220 % of control and 235 % of control
- T/C (dose: 4.0 mg/kg/injection, schedule: Q01DX001 (ip), vehicle: saline): 156 % of control and 167 % of control
- T/C (dose: 4.0 mg/kg/injection, schedule: Q04DX003 (ip), vehicle: saline): 150 % of control
- T/C (dose: 4.4 mg/kg/injection, schedule: Q01DX001 (ip), vehicle: saline): 158 % of control
- T/C (dose: 4.5 mg/kg/injection, schedule: Q04DX003 (ip), vehicle: saline): 219 % of control
- T/C (dose: 4.7 mg/kg/injection, schedule: Q01DX001 (ip), vehicle: saline): 174 % of control
- T/C (dose: 5.0 mg/kg/injection, schedule: Q04DX002 (ip), vehicle: saline): 157 % of control
- T/C [1]: 228 % of control
- T/C (dose: 5.3 mg/kg/injection, schedule: Q01DX001 (ip), vehicle: carboxymethylcellulose (CMC)): 191 % of control
- T/C (dose: 5.4 mg/kg/injection, schedule: Q01DX001 (ip), vehicle: water): 184 % of control and 206 % of control and 216 % of control
- T/C (dose: 6.0 mg/kg/injection, schedule: Q01DX001 (ip), vehicle: saline): 162 % of control and 166 % of control and 255 % of control
- T/C (dose: 6.0 mg/kg/injection, schedule: Q04DX002 (ip), vehicle: saline): 120 % of control
- T/C (dose: 6.7 mg/kg/injection, schedule: Q01DX001 (ip), vehicle: saline): 188 % of control
- T/C (dose: 7.0 mg/kg/injection, schedule: Q01DX001 (ip), vehicle: saline): 165 % of control
- T/C (dose: 7.5 mg/kg/injection, schedule: Q04DX003 (ip), vehicle: saline): 122 % of control
- T/C (dose: 8.0 mg/kg/injection, schedule: Q01DX001 (ip), vehicle: water): 178 % of control and 222 % of control and 280 % of control
- T/C (dose: 8.3 mg/kg/injection, schedule: Q04DX003 (ip), vehicle: water): 87 % of control

SMILES: Nc1nnc2nc(CC(=O)c3ccc(F)cc3)c(CC(=O)c3ccc(F)cc3)nn12
- T/C (dose: 60.0 mg/kg/injection, schedule: Q01DX005 (ip), vehicle: saline): 104 % of control
- T/C (dose: 120.0 mg/kg/injection, schedule: Q01DX005 (ip), vehicle: saline): 106 % of control
- T/C (dose: 240.0 mg/kg/injection, schedule: Q01DX005 (ip), vehicle: saline): 100 % of control

SMILES: COC1=CC2CC(C#N)C2(OC)C=C1 (stereo unspecified)
- T/C [2]: 97 % of control
- T/C [3]: 99 % of control
- T/C [4]: 98 % of control

SMILES: C/C=C1\C(=O)O[C@@]23C=C[C@H]4C(C(=O)OC)=CO[C@@H](O[C@H]12)[C@H]43
- T/C (dose: 0.63 mg/kg/injection, schedule: Q01DX009 (ip), vehicle: Klucel (hydroxypropylcellulose) (HPC)): 100 % of control
- T/C (dose: 0.63 mg/kg/injection, schedule: Q01DX009 (ip), vehicle: saline): 98 % of control
- T/C (dose: 1.25 mg/kg/injection, schedule: Q01DX009 (ip), vehicle: Klucel (hydroxypropylcellulose) (HPC)): 100 % of control
- T/C (dose: 1.25 mg/kg/injection, schedule: Q01DX009 (ip), vehicle: saline): 98 % of control
- T/C (dose: 2.5 mg/kg/injection, schedule: Q01DX009 (ip), vehicle: Klucel (hydroxypropylcellulose) (HPC)): 98 % of control
- T/C (dose: 2.5 mg/kg/injection, schedule: Q01DX009 (ip), vehicle: saline): 100 % of control
- T/C (dose: 5.0 mg/kg/injection, schedule: Q01DX009 (ip), vehicle: Klucel (hydroxypropylcellulose) (HPC)): 100 % of control
- T/C (dose: 5.0 mg/kg/injection, schedule: Q01DX009 (ip), vehicle: saline): 98 % of control
- T/C (dose: 10.0 mg/kg/injection, schedule: Q01DX009 (ip), vehicle: saline): 104 % of control
- T/C (dose: 20.0 mg/kg/injection, schedule: Q01DX009 (ip), vehicle: saline): 113 % of control

SMILES: COc1cccc2cc3c(NCCCN(C)C)nnc(NCCCN(C)C)c3cc12
- T/C (dose: 7.5 mg/kg/injection, schedule: Q01DX005 (ip), vehicle: saline): 105 % of control
- T/C (dose: 15.0 mg/kg/injection, schedule: Q01DX005 (ip), vehicle: saline): 98 % of control

SMILES: NC1=C(O)C(=O)C(c2cccc(O)c2)O1 (stereo unspecified)
- T/C [2]: 103 % of control
- T/C [3]: 100 % of control
- T/C [4]: 103 % of control

SMILES: CC(NC(=O)C(Cc1c[nH]c2ccccc12)NC(=O)OC(C)(C)C)C(=O)NN (stereo not drawn) (Boc-Trp-Ala-NHNH2; configuration not given here)
- T/C (dose: 12.5 mg/kg/injection, schedule: Q01DX009 (ip), vehicle: other): 98 % of control
- T/C (dose: 25.0 mg/kg/injection, schedule: Q01DX009 (ip), vehicle: other): 100 % of control
- T/C (dose: 50.0 mg/kg/injection, schedule: Q01DX009 (ip), vehicle: other): 105 % of control
- T/C (dose: 100.0 mg/kg/injection, schedule: Q01DX009 (ip), vehicle: other): 109 % of control
- T/C (dose: 200.0 mg/kg/injection, schedule: Q01DX009 (ip), vehicle: other): 119 % of control

SMILES: CN(C)CCCNc1cc(/C=C/c2ccc([N+](=O)[O-])cc2)nc2ccccc12
- T/C (dose: 50.0 mg/kg/injection, schedule: Q01DX005 (ip), vehicle: saline with Tween-80): 106 % of control
- T/C (dose: 100.0 mg/kg/injection, schedule: Q01DX005 (ip), vehicle: saline with Tween-80): 106 % of control
- T/C (dose: 200.0 mg/kg/injection, schedule: Q01DX005 (ip), vehicle: saline with Tween-80): 106 % of control

SMILES: CCOC(=O)C(Cc1ccc(N(CCCl)CCCl)cc1)NC(=O)C(C)NC(C)=O (stereo unspecified)
- T/C [1]: 108 % of control
- T/C (dose: 10.0 mg/kg/injection, schedule: Q04DX003 (ip), vehicle: water): 111 % of control and 113 % of control
- T/C (dose: 40.0 mg/kg/injection, schedule: Q04DX003 (ip), vehicle: water): 122 % of control

SMILES: CCCCCCCCCC1(CC(=O)OCC)SCCN1C(N)=O (stereo unspecified)
- T/C (dose: 50.0 mg/kg/injection, schedule: Q01DX009 (ip), vehicle: Klucel (hydroxypropylcellulose) (HPC)): 113 % of control
- T/C (dose: 100.0 mg/kg/injection, schedule: Q01DX009 (ip), vehicle: Klucel (hydroxypropylcellulose) (HPC)): 107 % of control
- T/C (dose: 200.0 mg/kg/injection, schedule: Q01DX009 (ip), vehicle: Klucel (hydroxypropylcellulose) (HPC)): 115 % of control
